Peptide text beside a SMILES is read from it. * marks the point of attachment. Cbz = O=C(OCc1ccccc1)*

One assay relates to perforin protein. Briefly: Western blot of perforin protein in cultured NK cells. The class given is cell-based. The following applies: NK cells treated with MG132 to prevent intracellular protein degradation. Here is the method: Protein extracts from NK cells were separated using 10% SDS-PAGE, and transferred to a polyvinylidene difluoride amersham Biosciences membrane for 90 minutes at the voltage of 120 V. The membrane was blocked in 3% bovine serum albumin (BSA)-containing tris-buffered saline-Tween [TBST; 0.2 M NaCl, 0.1% Tween-20, and 10 mM Tris (pH 7.4)] for 1 hour. The blocked membrane was incubated with a rabbit polyclonal anti-Perforin antibody (1:1000; ab180773, abcam) or a rabbit monoclonal anti-GAPDH antibody (1:1000; […], Cell signaling). After incubation, the membrane was incubated with anti-rabbit polyclonal IgG (1:5000; #7074, Cell Signaling Technology) for 1 hour at room temperature. After each step, the membrane was washed several times using TBST and bound antibodies were detected using an enhanced chemiluminescence detection system (Thermo Fisher Scientific Biosciences) according to manufacturer instructions In order to determine whether […] increases the amount of intracellular perforin, the NK cells of Example 1 were treated with 5 μg/ml of polyethylenimine, and cultured over time (0 hour, 3 hour, 6 hour, 12 hours, 24 hours, or 48 hours), and then Western blotting was performed on the cultured NK cells to identify the amount of granzyme B and perforin protein. […]
For orientation: Immunoblotting shows a protein as a band on a membrane.

In assay [1] the test system is triple negative breast cancer cell line MDA_MB231. The assay is described as follows: In vitro assay of inducing activity of natural killer cells (CFSE-7AAD assay, apoptosis of target cells). Format: cell-based. Conditions: NK cells cultured 48 hours with the substance, then mixed with MDA_MB231 at E:T 10:1 for 4 hours; target only 1.32, NK cells only 21.36. Here is the method:
Green fluorescence-labeled MDA MB 231 cells and NK cells were put into a 1.5 ml eppendorf tube in respective ratios, mixed, and reacted in a 37° C., CO2 5% incubator for 4 hours. After the reaction was over, the cells were stained with 7AAD (Invitrogen A1310) for 20 minutes and fixed. Through flow cytometry, the mixed cells were divided into two cell populations according to the presence or absence of green fluorescence, and the percentage of dead cells was measured and compared by group to analyze the activity.
In order to confirm the ability of […] to induce the activity of NK cells according to molecular weight and type, the NK cells of Example 1 were cultured for 48 hours after mixing with various molecular weights and types of polyethylenimine or with a control group.
Next, the cultured NK cells were washed, and re-suspended in a fresh culture medium. Thereafter, the NK cells and triple negative breast cancer cell line MDA_MB231 were mixed in an effector (E):target (T) ratio of 10:1 and cultured for 4 hours. Finally, the degree of apoptosis of the target cells in the cultured cells was quantitatively analyzed using the CFSE-7AAD assay.

Consider `CC(C)C[C@@H](C=O)NC(=O)[C@H](CC(C)C)NC(=O)[C@H](CC(C)C)NC(=O)OCc1ccccc1` [MG132] (Cbz-Leu-Leu-Leu-aldehyde), for which the “amount of perforin protein” value in the assay on perforin protein is listed as “increased”. Take Protamine: in assay [1], the “degree of apoptosis of target cells” value is listed as 25.31.

(Values after patent publication US20230390326A1, “COMPOSITION COMPRISING CATIONIC SUBSTANCE, AND USE FOR SAME” (SUNGKWANG MEDICAL FOUNDATION, priority 2020, published 2023).)
